Results as given in publication PMC7400577 (Scientific Reports, 2020).
Read-outs that look alike come from different tables or passages of the source.

Tests used:
[1] = target: T1, hBGT1 (Homo sapiens, UniProt P48065); details: [3H]GABA uptake, recombinant hBGT1; adapted from Al-Khawaja et al.; cited from earlier work
T1 construct: expressed in transfected cells
T1 sequence (P48065 1-614): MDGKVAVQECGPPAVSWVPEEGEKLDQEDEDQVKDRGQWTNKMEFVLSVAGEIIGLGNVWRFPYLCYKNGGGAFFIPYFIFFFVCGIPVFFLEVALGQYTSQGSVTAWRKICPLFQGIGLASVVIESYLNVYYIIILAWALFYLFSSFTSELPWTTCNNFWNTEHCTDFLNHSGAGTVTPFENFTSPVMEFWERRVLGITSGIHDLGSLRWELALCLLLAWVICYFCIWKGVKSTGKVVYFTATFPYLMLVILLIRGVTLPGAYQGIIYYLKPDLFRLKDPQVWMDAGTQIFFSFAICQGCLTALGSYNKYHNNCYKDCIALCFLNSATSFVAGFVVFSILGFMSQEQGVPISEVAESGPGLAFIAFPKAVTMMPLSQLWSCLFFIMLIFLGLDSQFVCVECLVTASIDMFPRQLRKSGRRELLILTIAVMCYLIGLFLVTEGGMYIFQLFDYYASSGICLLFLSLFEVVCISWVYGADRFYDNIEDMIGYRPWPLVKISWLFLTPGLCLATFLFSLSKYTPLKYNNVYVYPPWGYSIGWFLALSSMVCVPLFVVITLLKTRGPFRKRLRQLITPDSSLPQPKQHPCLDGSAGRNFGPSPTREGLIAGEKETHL

[2] = target: T2, hGAT3 (Homo sapiens, UniProt P48066); test: [3H]GABA uptake inhibition at hGAT3 stably expressed in CHO Flp-In cells; type: cell-based; details: 30 nM [3H]GABA, 3 min, CHO Flp-In cells stably expressing hGAT3; read-out: IC50 hGAT3
T2 construct: expressed in transfected cells
T2 sequence (P48066 1-632): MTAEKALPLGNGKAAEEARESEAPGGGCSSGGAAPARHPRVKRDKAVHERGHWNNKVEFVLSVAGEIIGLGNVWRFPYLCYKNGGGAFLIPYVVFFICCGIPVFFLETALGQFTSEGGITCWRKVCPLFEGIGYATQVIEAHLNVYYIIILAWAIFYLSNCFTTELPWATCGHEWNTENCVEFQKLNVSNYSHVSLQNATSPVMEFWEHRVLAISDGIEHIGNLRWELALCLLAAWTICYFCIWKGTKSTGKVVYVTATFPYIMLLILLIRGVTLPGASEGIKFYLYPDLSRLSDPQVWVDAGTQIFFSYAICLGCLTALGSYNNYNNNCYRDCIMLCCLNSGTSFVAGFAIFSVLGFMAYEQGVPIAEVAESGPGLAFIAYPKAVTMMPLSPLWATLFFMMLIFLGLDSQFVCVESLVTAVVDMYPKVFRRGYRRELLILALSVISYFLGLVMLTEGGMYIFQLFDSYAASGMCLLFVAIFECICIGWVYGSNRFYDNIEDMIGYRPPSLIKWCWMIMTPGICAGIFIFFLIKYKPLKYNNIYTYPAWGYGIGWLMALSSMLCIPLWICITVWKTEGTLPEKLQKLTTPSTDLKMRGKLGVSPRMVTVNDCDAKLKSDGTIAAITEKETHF
Method: CHO Flp-In and tsA201 cells were cultured at 37 °C in a humidified atmosphere of […] and 5% CO2. As previously described[38],[63], CHO Flp-In cells stably expressing the hGATs were cultured in Ham’s F12 Nutrient Mix supplemented with 10% FBS, 1% P/S and plasmocin (5 µg/mL) under the selection pressure of hygromycin B (200 µg/mL). DMEM with GlutaMAX-I supplemented with 10% FBS and 1% P/S was used as growth medium for the tsA201 cells, which were transfected with DNA constructs using PolyFect according to the manufacturer’s specifications (Qiagen, West Sussex, UK), but with half of the recommended reagent volumes.
Uptake assays were performed in PDL-coated white 96-well polystyrene cell culture microplates (PerkinElmer, Boston, MA, USA) as previously described[38],[63]. […] Assay buffer was HBSS supplemented with 20 mM HEPES, 1 mM CaCl2 and 1 mM MgCl2, pH 7.4. […] After termination, scintillation liquid (MicroScint-20, PerkinElmer) was added and the radioactivity measured in a TopCount NXT Microplate Scintillation Counter (PerkinElmer).
Data analysis and statistical evaluation were performed in GraphPad Prism 7.02 (GraphPad Software, San Diego, CA, USA). Concentration-uptake inhibition curves, generated from the radioligand-based uptake assays, were fitted by non-linear regression, using the equation for sigmoidal concentration–response with variable slope: Y = Bottom + (Top–Bottom)/(1 + 10^((logIC50 − X) × HillSlope)), where Y is the response, X is the logarithm of the concentration, Top and Bottom are the plateaus in same units as Y, logIC50 is the concentration giving a response halfway between Bottom and Top, and the HillSlope is the steepness of the curve. For the substrate concentration–response curves generated from the FMP assay, the same equation was used but with logEC50 instead for logIC50. Unless otherwise stated, data are presented as means ± S.E.M. of at least three independent pooled experiments performed in triplicates.

[3] = target: T2, hGAT3; details: [3H]GABA uptake, recombinant hGAT3; adapted from Al-Khawaja et al.; cited from earlier work
[4] = target: T1, hBGT1; details: previously demonstrated; cited from earlier work
[5] = target: T3, hGAT2 (Homo sapiens, UniProt Q9NSD5); details: [3H]GABA uptake, recombinant hGAT2; adapted from Al-Khawaja et al.; cited from earlier work
T3 construct: expressed in transfected cells
T3 sequence (Q9NSD5 1-602): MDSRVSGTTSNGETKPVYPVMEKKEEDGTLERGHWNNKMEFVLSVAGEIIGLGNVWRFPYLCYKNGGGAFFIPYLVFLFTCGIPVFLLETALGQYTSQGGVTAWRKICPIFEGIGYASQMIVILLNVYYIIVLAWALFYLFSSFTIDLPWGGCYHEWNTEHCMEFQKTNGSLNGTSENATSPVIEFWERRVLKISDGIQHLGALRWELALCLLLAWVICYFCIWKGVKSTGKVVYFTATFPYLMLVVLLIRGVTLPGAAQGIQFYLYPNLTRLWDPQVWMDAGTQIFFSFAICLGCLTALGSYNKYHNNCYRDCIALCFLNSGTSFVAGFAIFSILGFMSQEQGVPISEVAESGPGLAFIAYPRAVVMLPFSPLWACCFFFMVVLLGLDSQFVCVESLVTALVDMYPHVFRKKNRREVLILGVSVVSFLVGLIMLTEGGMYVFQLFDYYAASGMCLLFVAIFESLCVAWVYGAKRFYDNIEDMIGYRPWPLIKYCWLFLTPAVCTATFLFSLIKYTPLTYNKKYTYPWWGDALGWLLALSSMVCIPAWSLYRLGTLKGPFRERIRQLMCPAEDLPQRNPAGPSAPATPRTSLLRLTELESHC

| SMILES | IC50 [1] [µM] | IC50 [2] [µM] | also measured |
| --- | --- | --- | --- |
| NC1=NCC(C(=O)O)CC1 (stereo not shown) [compound 2, 6-amino-2,3,4,5-tetrahydropyridine-3-carboxylic acid, reference compound] | 9.8 | > 1000 |  |
| NC1=NC=C(C(=O)O)CN1.O=C(O)C(F)(F)F [compound 11] |  | > 1000 |  |
| Cl.NC1=NCC(C(=O)O)CN1Cc1ccccc1 (stereo not shown) [compound 4] |  | 117 |  |
| CCN1CC(C(=O)O)CN=C1N.Cl (stereo not shown) [compound 3] |  | > 1000 |  |
| NC1=NCC(C(=O)O)CN1 (stereo not shown) [ATPCA, 2-amino-1,4,5,6-tetrahydropyrimidine-5-carboxylic acid, reference compound] | 2.5 |  | IC50 [3]: 99 µM; pIC50 ± S.E.M. hGAT3 [3]: 4.00 ± 0.03; substrate character at hBGT1 in FMP assay [4]: substrate for hBGT1; IC50 [5]: 41 µM; pIC50 ± S.E.M. hGAT2 [5]: 4.39 ± 0.09; pIC50 ± S.E.M. hBGT1 [1]: 5.60 ± 0.11 |
| C[C@@H]1N=C(N)NC[C@@H]1C(=O)O (single isomer, unassigned) [l-15a] |  | > 1000 |  |
